In US20070149535A1, “Protein kinase inhibitors” (ONCALIS AG, priority 2004, published 2007):

Key:
FGFR-2 = target: T1, FGFR-2 (Homo sapiens, UniProt P21802); assay: Yeast growth assay, specificity profiling; type: cell-based; design: key: “−” indicates no growth restoration i.e. no activity against the particular kinase; “+”, “++”, and “+++” indicate activity detected by restoration of growth, classified into three categories of potency; “+”, “++”, and “+++” indicate activity detected by restoration of growth, classified into three categories of potency; “+”, “++”, and “+++” indicate activity detected by restoration of growth, classified into three categories of potency; details: 7 concentrations between 0.2 and 100 μM
T1 construct: expressed in transfected cells; host or cells: yeast
Method in brief: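 Read-out: rescue of yeast growth, scored − (none) to +++ by maximal restoration level and concentration at which it occurs. Galactose induces RTK expression from plasmid, which inhibits growth; glucose pre-culture represses it. 7-point titration, 0.2–100 μM.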

EGFR (L858R) = target: T2, EGFR (L858R) (Homo sapiens, UniProt P00533, L858R); assay: Yeast growth assay, specificity profiling; type: cell-based; design: key: (+) in a different yeast background; details: in a different yeast background;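 also: Parenthesized + marks a result obtained in a different yeast background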
T2 construct: expressed in transfected cells; host or cells: yeast
Description: Specificity Profiling: Yeast Growth Assay
The yeast growth assay was performed as described in “Method for the identification and/or validation of receptor tyrosine kinase inhibitors” PCT/CH03/00694 (2004/10/24), section “Modes for Carrying out the Invention, Experiment 1 and Experiment 2.
Briefly, yeast cells carrying plasmids with the RTK of interest were grown in glucose containing medium (repressing expression). The cultures were diluted into galactose containing medium, which induces the expression of the kinase. Expression of the kinase inhibits growth of the yeast cells, which allows for positive selection of kinase inhibitors restoring growth of cells. Compounds were titrated at 7 concentrations between 0.2 and 100 μM.
Specificity profiling of compounds, using the yeast growth assay method described above. “−” indicates no growth restoration i.e. no activity against the particular kinase, “+”, “++”, and “+++” indicate activity detected by restoration of growth, classified into three categories of potency according to the maximal level of growth restoration reached and the concentration at which the maximal growth restoration is reached.

T1 sequence (P21802 22-821): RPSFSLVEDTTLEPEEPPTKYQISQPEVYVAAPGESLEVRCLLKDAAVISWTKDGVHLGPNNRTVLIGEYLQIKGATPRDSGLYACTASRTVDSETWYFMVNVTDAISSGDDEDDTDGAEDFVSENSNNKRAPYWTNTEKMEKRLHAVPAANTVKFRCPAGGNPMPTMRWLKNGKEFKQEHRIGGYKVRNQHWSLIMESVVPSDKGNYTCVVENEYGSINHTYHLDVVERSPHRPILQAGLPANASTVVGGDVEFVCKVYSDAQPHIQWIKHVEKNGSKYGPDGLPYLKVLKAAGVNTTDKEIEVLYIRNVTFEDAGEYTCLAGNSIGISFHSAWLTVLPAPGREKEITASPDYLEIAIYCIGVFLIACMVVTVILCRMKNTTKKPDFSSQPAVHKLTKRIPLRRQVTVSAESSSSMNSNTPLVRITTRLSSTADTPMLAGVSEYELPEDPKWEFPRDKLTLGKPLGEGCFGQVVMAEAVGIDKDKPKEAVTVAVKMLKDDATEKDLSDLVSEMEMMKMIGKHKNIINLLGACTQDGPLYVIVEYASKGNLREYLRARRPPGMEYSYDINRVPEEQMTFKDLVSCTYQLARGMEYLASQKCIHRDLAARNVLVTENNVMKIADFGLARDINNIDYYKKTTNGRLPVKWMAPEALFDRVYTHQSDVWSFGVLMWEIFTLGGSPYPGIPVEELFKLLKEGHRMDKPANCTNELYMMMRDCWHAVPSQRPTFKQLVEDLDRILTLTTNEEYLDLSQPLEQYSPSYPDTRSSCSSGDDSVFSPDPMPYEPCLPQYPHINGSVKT

With Clc1ccc(Nc2c(-c3ccccc3)nc3cnccn23)cc1 [compound 16, (4-Chloro-phenyl)-(2-phenyl-imidazo[1,2-a]pyrazin-3-yl)-amine] the FGFR-2 growth restoration (FGFR-2) was “−”.

For Cc1nccn2c(Nc3ccc(F)c(F)c3)c(-c3ccccc3)nc12 [compound 45, (3,4-Difluoro-phenyl)-(8-methyl-2-phenyl-imidazo[1,2-a]pyrazin-3-yl)-amine], the FGFR-2 growth restoration (FGFR-2) was “−”.

With COc1cccc(-c2nc3c(C)nccn3c2Nc2cccc(Cl)c2)c1 [compound 48, (3-Chloro-phenyl)-[2-(3-methoxy-phenyl)-8-methyl-imidazo[1,2-a]pyrazin-3-yl]-amine] the “EGFR (L858R) growth restoration” value (EGFR (L858R)) was “(+)”.

In the case of Cc1nccn2c(Nc3cccc(F)c3)c(-c3ccccc3)nc12 [compound 44, (3-Fluoro-phenyl)-(8-methyl-2-phenyl-imidazo[1,2-a]pyrazin-3-yl)-amine], the FGFR-2 growth restoration (FGFR-2) is reported as “−”.

c1ccc(Nc2c(-c3ccc(N4CCOCC4)cc3)nc3cnccn23)cc1 [compound 38, [2-(4-Morpholin-4-yl-phenyl)-imidazo[1,2-a]pyrazin-3-yl]-phenyl-amine] was tested, and the “EGFR (L858R) growth restoration” value (EGFR (L858R)) was “(+)”.

In the case of Cc1cccc(Nc2c(-c3ccccc3)nc3c(C)nccn23)c1 [compound 43, (8-Methyl-2-phenyl-imidazo[1,2-a]pyrazin-3-yl)-m-tolyl-amine], the FGFR-2 growth restoration (FGFR-2) is reported as “−”.

For Fc1ccc(Nc2c(-c3ccccc3)nc3cnccn23)cc1F [compound 30, (3,4-Difluoro-phenyl)-(2-phenyl-imidazo[1,2-a]pyrazin-3-yl)-amine], the “EGFR (L858R) growth restoration” value (EGFR (L858R)) was “(+)”.

Cc1nccn2c(Nc3ccccc3)c(-c3ccccc3)nc12 [compound 39, (8-Methyl-2-phenyl-imidazo[1,2-a]pyrazin-3-yl)-phenyl-amine] was tested, and the FGFR-2 growth restoration (FGFR-2) was “−”.

With CC(=O)Nc1ccc(-c2nc3c(C)nccn3c2Nc2cccc(Cl)c2)cc1 [compound 33, N-{4-[3-(3-Chloro-phenylamino)-8-methyl-imidazo[1,2-a]pyrazin-2-yl]-phenyl}-acetamide] the “EGFR (L858R) growth restoration” value (EGFR (L858R)) was “(+)”.

In the case of Cc1cccc(Nc2c(-c3ccccc3)nc3cnccn23)c1 [compound 34, (2-Phenyl-imidazo[1,2-a]pyrazin-3-yl)-m-tolyl-amine], the FGFR-2 growth restoration (FGFR-2) is reported as “−”.

c1ccc(Nc2c(-c3ccccc3)nc3cnccn23)cc1 [compound 23, Phenyl-(2-phenyl-imidazo[1,2-a]pyrazin-3-yl)-amine] was tested, and the FGFR-2 growth restoration (FGFR-2) was “−”.

For Fc1cccc(Nc2c(-c3ccccc3)nc3cnccn23)c1 [compound 26, (3-Fluoro-phenyl)-(2-phenyl-imidazo[1,2-a]pyrazin-3-yl)-amine], the “EGFR (L858R) growth restoration” value (EGFR (L858R)) was “(+)”.

For Brc1cccc(Nc2c(-c3ccccc3)nc3cnccn23)c1 [compound 14, (3-Bromo-phenyl)-(2-phenyl-imidazo[1,2-a]pyrazin-3-yl)-amine], the FGFR-2 growth restoration (FGFR-2) was “−”.

In the case of COc1cccc(-c2nc3cnccn3c2Nc2cccc(Cl)c2)c1 [compound 7, (3-Chloro-phenyl)-[2-(3-methoxy-phenyl)-imidazo[1,2-a]pyrazin-3-yl]-amine], the FGFR-2 growth restoration (FGFR-2) is reported as “−”.

CC(=O)Nc1ccc(-c2nc3cnccn3c2Nc2cccc(Cl)c2)cc1 [compound 8, N-{4-[3-(3-Chloro-phenylamino)-imidazo[1,2-a]pyrazin-2-yl]-phenyl}-acetamide] was tested, and the “EGFR (L858R) growth restoration” value (EGFR (L858R)) was “(+)”.

For Clc1cccc(Nc2c(-c3ccccc3)nc3cnccn23)c1 [compound 35, (3-Chloro-phenyl)-(2-phenyl-imidazo[1,2-a]pyrazin-3-yl)-amine], the FGFR-2 growth restoration (FGFR-2) was “−”.

In the case of COc1cccc(-c2nc3c(C)nccn3c2Nc2cccc(C)c2)c1 [compound 42, [2-(3-Methoxy-phenyl)-8-methyl-imidazo[1,2-a]pyrazin-3-yl]-m-tolyl-amine], the “EGFR (L858R) growth restoration” value (EGFR (L858R)) is reported as “(+)”.

For Nc1ccc(-c2nc3cnccn3c2Nc2cccc(Cl)c2)cc1 [compound 10, [2-(4-Amino-phenyl)-imidazo[1,2-a]pyrazin-3-yl]-(3-chloro-phenyl)-amine], the “EGFR (L858R) growth restoration” value (EGFR (L858R)) was “(+)”.

For Cc1nccn2c(Nc3cccc(Cl)c3)c(-c3ccccc3)nc12 [compound 3, (3-Chloro-phenyl)-(8-methyl-2-phenyl-imidazo[1,2-a]pyrazin-3-yl)-amine], the FGFR-2 growth restoration (FGFR-2) was “−”.

For CC(C)c1nc2cnccn2c1Nc1cccc(Cl)c1 [compound 12, (3-Chloro-phenyl)-(2-isopropyl-imidazo[1,2-a]pyrazin-3-yl)-amine], the “EGFR (L858R) growth restoration” value (EGFR (L858R)) was “(+)”.
